According to patent US20250352524A1, “PREVENTION OF METASTATIC OUTGROWTH USING TEAD INHIBITORS” (Georgetown University, priority 2024, published 2025):

Assays:
[1] = test system: T-cells; assay: Degranulation assay of T-cells co-cultured with 4T1 cells; type: cell-based, BALB/c mice
Description: (§1) The hippo pathway has been implicated in T-cell development and function (Du et al., 2014; Ueda et al., 2012). For example, YAP expression is essential for tumor immune suppression by Treg cells that attenuates CD8 T-cell immunity (Geng et al., 2017; Ni et al., 2018; Lebid et al., 2020). […] To investigate whether VT107 directly affected T-cells, T-cells treated with VT107 were co-cultured with 4T1 cells in 2D for 72 hours. […] To further confirm T-cell activation upon TEAD activity reduction, we used Jurkat cells, a CD4 positive human lymphoma cell line (Schneider et al., 1977). […] However, here we show the specific effect of TEAD reduction on granzyme gene expression and degranulation that result in the killing of cancer cells.
T-cells were isolated from the spleens of naïve BALB/c as described above and treated in vitro with DMSO control or VT107 for 24 hours. T-cells were then co-cultured with 4T1 cells with the same treatment conditions. After 72 hours, all cells were collected and subdued to flow cytometry using anti-CD45-AF700 (Biolegend, 103128), anti-CD8-BV785 (Biolegend, 100750), anti-CD4-Pacific Blue (Biolegend, 116007), anti-CD107a-PE/Cy7 (Biolegend, 121620), and Helix NP Blue (Biolegend, 425305). Analysis was performed on the BD FACSymphony Δ3 flow cytometer analyzer, and results were analyzed using FCS Express 7 Research (De Novo Software).

[2] = test system: 4T1 spheres; assay: 3D sphere co-culture assay, 4T1 spheres with T-cells and/or macrophages; type: cell-based, mouse; settings: for cleaved caspase-3 in 4T1 cells: 24 hours
Description: T-cells were isolated from the spleens of naïve mice, activated by CD3/CD28, and treated with either 1 μM iTEAD or vehicle. Peritoneal macrophages were isolated from the peritoneal lavage of naïve mice after attachment on culture dishes and treated with either 1 μM iTEAD or vehicle. The immune cells were mixed with tumor cells that were aggregated into spheres in u-shaped molds for 24 hours (FIG. 7).
To investigate whether the effect of iTEAD treatment on macrophages can enhance their crosstalk with T-cells in the lung microenvironment, peritoneal macrophages+/−iTEAD were first isolated and characterized as a model of resident macrophages for ex vivo experiments (FIG. 14, Panel A). It was observed that treatment with VT107 decreased gene expression of M2-like and fibrosis regulators, Aldh1a1 and Cc117 (Chen et al., 2020), as well as TEAD4 and its downstream target gene Ankrd1. […] The iTEAD pretreated peritoneal macrophages and untreated T-cells isolated from the spleen of tumor naïve mice (FIG. 14, Panel A) were then mixed for 5 hours before collecting the conditioned media for analysis. […] Next, these immune cell mixes were added to 4T1 spheres that were embedded into matrix. […] This effect was reversed by an IL12 neutralizing antibody. No change in cleaved caspase-3 in 4T1 cells in the presence of VT107-treated T-cells or macrophages alone, was detected at 24 hours (FIG. 14, Panels C and D). 4T1 cells were then plated and allowed to attach on electrode-coated arrays to monitor cancer cell viability before the addition of macrophages+/−iTEAD and T-cells. […] This reversal of T-cell cytotoxicity by IL12 antibodies was not observed in VT107-treated T-cells in the absence of macrophages (FIG. 15, Panel E) indicating a critical role for IL12 in the crosstalk between macrophages and T-cells.
as §1
One thousand 4T1 cells were aggregated in 81-well agarose molds (Microtissues, #Z764019). […] Images were captured using the Olympus BX40 microscope, and DAB signal per sphere was quantified in imageJ and normalized to the number of nuclei. […]

VT107
T-cell degranulation marker CD107a ([1]; 1 μM VT107, co-culture with 4T1 cells 72 hours, flow cytometry): significantly increased
IFNγ levels ([1]; T-cells treated with VT107, co-cultured with 4T1 cells in 2D for 72 hours): no change
cleaved caspase-3 in 4T1 cells ([2]; VT107-treated T-cells or macrophages alone): No change
cleaved caspase-3 IHC staining of 4T1 spheres ([2]; co-culture with T-cells treated with 1 μM VT107, 72 hours): increased
number of 4T1 cells per sphere ([2]; co-culture with T-cells treated with 1 μM VT107, 72 hours vs vehicle): significantly reduced
cleaved caspase-3 in 4T1 cells ([2]; iTEAD-treated macrophages and T-cells, spheres in matrix): elevated signal
